# “Also recorded” adds a separate entry of the source. Like-named read-outs stand apart in the source and are kept apart here.
# What was measured:
# [1] = system: M. bovis BCG; test: microbe, parasite or virus in culture; type: cell-based; settings: for MIC99: Mycobacterium tuberculosis variant bovis BCG, BCG; for antimycobacterial effect (in words): M. bovis BCG, REMA
# [2] = biological target: T1, MbtI (Mycobacterium tuberculosis, UniProt P9WFX1); test: MbtI fluorimetric enzyme inhibition assay; type: biochemical; settings: for remaining activity at 100 µM / % RA (percentage of residual enzymatic activity): 100 μM test compound, 50 μM chorismic acid; for remaining activity at 100 µM: read-out: % RA (percentage of residual enzymatic activity); for IC50: recombinant MbtI
# T1 construct: made in house
# Description: MbtI from Mtb was produced in recombinant form, and enzyme activity was determined using a fluorimetric assay, as previously reported.[38] For the inhibition studies, the activity was determined in the presence of 100 μM of the test compound and 50 μM of chorismic acid. For compounds that inhibited more than 80% of the initial activity, IC50 values were calculated using eq 1 and GraphPad Prism 8.0 software [drawing 1] 1 where A[I] is the activity at inhibitor concentration [I] and A[0] is the activity in the absence of the inhibitor.
# [3] = system: mycobacterial efflux pumps; type: cell-based, M. bovis BCG; settings: MIC99 with reserpine 32 μg/mL or verapamil 125 μg/mL (1/2 MIC)
# [4] = system: siderophore production; type: cell-based; settings: M. bovis BCG grown with different concentrations of compound
# [5] = system: Mtb-infected murine alveolar-like macrophages (mAMs); type: cell-based, Mycobacterium tuberculosis
# [6] = system: M. bovis BCG; type: cell-based; settings: 1 × MIC and 10 × MIC, low-iron chelated Sauton's medium
# [7] = Polymersome size by DLS; type: physicochemical; settings: three independent batches
# Description: The purified solutions were then analyzed by Transmission Electron Microscopy (TEM) on a Jeol JEM 1010 100 kV microscope, equipped with a Megaview 1kx1k CCD (Jeol Ltd., Tokyo, Japan). Copper grids were glow-discharged, and the sample was adsorbed onto the grid. The sample was stained with 1 wt % phosphotungstic acid (PTA) adjusted to pH 7.4 with NaOH. All the TEM analyses were performed with dried samples. The nanoparticle size distribution was characterized by DLS analyses (DLS PN3704 Zetasizer, Malvern Panalytical) using a copolymer concentration of 0.20 mg/mL. For each analysis, 3 measurements were carried out, based on 11 runs. Samples were analyzed at 25 °C with a scattering angle of 173° and a 633 nm HeNe laser, based on a material refractive index (RI) of 1.59, a dispersant refractive index of 1.330, and a viscosity of 0.89. Drug encapsulation was measured by RP-HPLC (Dionex UltiMate 3000, ThermoFisher Scientific). A gradient of water + TFA 0.05% (A) and MeOH + TFA 0.05% (B) from 0 min (30% B) to 30 min (100% B) was used to run the samples through a Jupiter 5 μm C18 300 Å, 150 × 4.6 mm column (Phenomenex, Torrance, CA). The peak area was integrated by using Chromeleon version 6.8 (ThermoFisher Scientific).
# [8] = system: mouse alveolar-like macrophages (MPI-2 cell line); test: MTT viability assay on mAMs; type: cell-based; settings: 24 h exposure, 200, 100, 50 and 25 μM
# Description: Cell viability was evaluated on human monocytes (THP-1 cell line), human lung fibroblasts (HLF cell line), and mouse alveolar-like macrophages (MPI-2 cell line) using the thiazolyl blue tetrazolium bromide method (MTT; chemicals acquired from Sigma-Aldrich, Merck KGaA).
# [9] = biological target: T1, MbtI; settings: compound II; cited from earlier work
# [10] = system: M. bovis BCG; settings: cited from earlier work
# [11] = system: Mtb H37Rv; design: method as in PMID 32530281; settings: compound I; cited from earlier work
# [12] = system: human cell lines; design: method as in PMID 30889995, PMID 36015139; settings: several human cell lines; cited from earlier work
# T1 sequence (P9WFX1 whole entry): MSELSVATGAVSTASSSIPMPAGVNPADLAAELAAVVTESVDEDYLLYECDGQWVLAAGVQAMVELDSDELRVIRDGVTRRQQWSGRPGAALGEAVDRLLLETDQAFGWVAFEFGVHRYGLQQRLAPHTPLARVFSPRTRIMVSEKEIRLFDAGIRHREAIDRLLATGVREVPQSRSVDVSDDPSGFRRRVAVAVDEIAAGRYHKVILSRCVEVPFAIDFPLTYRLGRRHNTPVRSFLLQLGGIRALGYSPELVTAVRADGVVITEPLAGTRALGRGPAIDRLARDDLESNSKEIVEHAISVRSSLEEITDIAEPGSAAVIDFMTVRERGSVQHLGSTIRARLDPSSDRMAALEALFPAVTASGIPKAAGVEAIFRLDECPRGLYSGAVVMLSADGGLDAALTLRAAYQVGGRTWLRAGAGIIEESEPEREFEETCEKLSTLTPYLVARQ
SMILES,MIC99 [1],remaining activity at 100 µM [2],IC50 [2],other results
"CCOc1cc(C#N)cc(-c2ccc(C(=O)O)o2)c1 [Compound 1a, 5-(3-Cyano-5-ethoxyphenyl)furan-2-carboxylic Acid]",> 500 µM,4.9 ± 2.3%,11.8 ± 0.6 µM,
"CC(C)Oc1cc(C#N)cc(-c2ccc(C(=O)O)o2)c1 [Compound 1b, 5-(3-Cyano-5-isopropoxyphenyl)furan-2-carboxylic Acid]",> 500 µM,12.1 ± 2.9%,21.1 ± 0.6 µM,
"CCCOc1cc(C#N)cc(-c2ccc(C(=O)O)o2)c1 [Compound 1c, 5-(3-Cyano-5-propoxyphenyl)furan-2-carboxylic Acid]",250 µM,2.5 ± 0.4%,18.5 ± 0.9 µM,
"CCCCOc1cc(C#N)cc(-c2ccc(C(=O)O)o2)c1 [Compound 1d, 5-(3-Butoxy-5-cyanophenyl)furan-2-carboxylic Acid]",63 µM,< 1%,0.9 ± 0.2 µM,substrate of mycobacterial efflux pumps [3]: not substrates of efflux pumps
"CC(C)COc1cc(C#N)cc(-c2ccc(C(=O)O)o2)c1 [Compound 1e, 5-(3-Cyano-5-isobutoxyphenyl)furan-2-carboxylic Acid]",32 µM,7 ± 3.1%,11.2 ± 1.5 µM,siderophore production (CAS assay) [4]: acted by impairing the production of siderophores; reduction in Mtb intracellular burden by the free compound [5]: did not exhibit significant activity on infected macrophages; also recorded: detected only at the highest tested concentration (200 μM); time-killing behaviour [6]: bacteriostatic activity; substrate of mycobacterial efflux pumps [3]: not substrates of efflux pumps
"N#Cc1cc(OCC2CC2)cc(-c2ccc(C(=O)O)o2)c1 [Compound 1f, 5-(3-Cyano-5-(cyclopropylmethoxy)phenyl)furan-2-carboxylic Acid]",125 µM,20%,,% RA (percentage of residual enzymatic activity) [2]: 20.6 ± 2.4%
"N#Cc1cc(OCC2CCC2)cc(-c2ccc(C(=O)O)o2)c1 [Compound 1g, 5-(3-Cyano-5-(cyclobutylmethoxy)phenyl)furan-2-carboxylic Acid]",250 µM,30%,,% RA (percentage of residual enzymatic activity) [2]: 30.4 ± 6.3%
"CC(C)(C)COc1cc(C#N)cc(-c2ccc(C(=O)O)o2)c1 [Compound 1h, 5-(3-Cyano-5-(neopentyloxy)phenyl)furan-2-carboxylic Acid]",125 µM,6.8 ± 3.1%,18.6 ± 1.5 µM,
"CCCCCOc1cc(C#N)cc(-c2ccc(C(=O)O)o2)c1 [Compound 1i, 5-(3-Cyano-5-(pentyloxy)phenyl)furan-2-carboxylic Acid]",125 µM,0.4 ± 0.2%,6.8 ± 0.1 µM,
"CC(C)CCOc1cc(C#N)cc(-c2ccc(C(=O)O)o2)c1 [Compound 1j, 5-(3-Cyano-5-(isopentyloxy)phenyl)furan-2-carboxylic Acid]",125 µM,1.6 ± 1.4%,22 ± 1.8 µM,
"CCCCCCOc1cc(C#N)cc(-c2ccc(C(=O)O)o2)c1 [Compound 1k, 5-(3-Cyano-5-(hexyloxy)phenyl)furan-2-carboxylic Acid]",63 µM,6 ± 6.1%,9.9 ± 1.3 µM,substrate of mycobacterial efflux pumps [3]: not substrates of efflux pumps
"CCCCCCCCOc1cc(C#N)cc(-c2ccc(C(=O)O)o2)c1 [Compound 1l, 5-(3-Cyano-5-(octyloxy)phenyl)furan-2-carboxylic Acid]",,40%,,% RA (percentage of residual enzymatic activity) [2]: 40.0 ± 4.1%
"CC=CCOc1cc(C#N)cc(-c2ccc(C(=O)O)o2)c1 [Compound 1m, 5-(3-(But-2-en-1-yloxy)-5-cyanophenyl)furan-2-carboxylic Acid]",125 µM,7.5 ± 0.3%,3.1 ± 0.7 µM,
"C/C=C/C=C/COc1cc(C#N)cc(-c2ccc(C(=O)O)o2)c1 [Compound 1n, 5-(3-Cyano-5-((2E,4E)-hexa-2,4-dien-1-yloxy)phenyl)furan-2-carboxylic Acid]",> 500 µM,10 ± 3.6%,16.6 ± 2.1 µM,antimycobacterial effect (in words) [1]: completely abolished the antimycobacterial effect
"C/C=C/C=C/C=C/COc1cc(C#N)cc(-c2ccc(C(=O)O)o2)c1 [Compound 1o, 5-(3-Cyano-5-((2E,4E,6E)-octa-2,4,6-trien-1-yloxy)phenyl)furan-2-carboxylic Acid]",> 500 µM,18.4 ± 3.8%,9.2 ± 2.4 µM,antimycobacterial effect (in words) [1]: completely abolished the antimycobacterial effect
"CCOC(=O)c1ccc(-c2cc(C#N)cc(OCC(C)C)c2)o1 [Compound 2ea, Ethyl 5-(3-Cyano-5-isobutoxyphenyl)furan-2-carboxylate]",64 µM,71.5 ± 7.6%,,average size (hydrodynamic diameter) of drug-containing POs [7]: 44.46 ± 9.58 nm; mAM viability / cytotoxic effect [8]: increase in mAM mortality at the two highest tested concentrations (200 and 100 μM)
"CCCOC(=O)c1ccc(-c2cc(C#N)cc(OCC(C)C)c2)o1 [Compound 2eb, Propyl 5-(3-Cyano-5-isobutoxyphenyl)furan-2-carboxylate]",125 µM,94 ± 9.3%,,average size (hydrodynamic diameter) of drug-containing POs [7]: 45.68 ± 1.86 nm; mAM viability / cytotoxic effect [8]: increase in mAM mortality at the two highest tested concentrations (200 and 100 μM)
N#Cc1cc(OCCOc2ccccc2)cc(-c2ccc(C(=O)O)o2)c1 [II],,,,IC50 [9]: 12.1 µM; MIC99 ([10]; compound II): 63 µM
N#Cc1cccc(-c2ccc(C(=O)O)o2)c1 [I],,,,"MIC99 [11]: 250 µM; safety on human cell lines [12]: safe on several human cell lines; MIC99 ([10]; compound I, M. bovis BCG): 250 µM"
"CO[C@H]1/C=C/O[C@@]2(C)Oc3c(C)c(O)c4c(O)c(c(/C=N/N5CCN(C)CC5)c(O)c4c3C2=O)NC(=O)/C(C)=C\C=C\[C@H](C)[C@H](O)[C@@H](C)[C@@H](O)[C@@H](C)[C@H](OC(C)=O)[C@@H]1C [Rifampicin, reference compound]",,,,"time of peak effect on Mtb fluorescence ([5]; 1 μg/mL (2x MIC), positive control): 3 day post-treatment"
